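1) Cells in 96-well plates. 2) Compound, 48 h, 5 concentrations. 3) Linear interpolation between surrounding doses. 4) Unreached endpoint = highest concentration. The concentration for 50% growth inhibition is given as GI50.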 Calls of active or inactive are those of the source. No stated cut-off is given here; in the data, active = GI50 up to about 1.1 µM and inactive = higher.
Legend:
Test in all cases: NCI anticancer screen, dose series, 48 h
Hs-578T = tested on: Hs-578T
SNB-75 = tested on: SNB-75
TK-10 = tested on: TK-10
SN12C = tested on: SN12C
M14 = tested on: M14
SR = tested on: SR
Malme-3M = tested on: Malme-3M
MDA-N = tested on: MDA-N
OVCAR-4 = tested on: OVCAR-4
SK-MEL-2 = tested on: SK-MEL-2
SK-OV-3 = tested on: SK-OV-3
IGROV-1 = tested on: IGROV-1
SNB-19 = tested on: SNB-19
786-0 = tested on: 786-0
NCI-H23 = tested on: NCI-H23
SK-MEL-28 = tested on: SK-MEL-28
NCI-H522 = tested on: NCI-H522
NCI/ADR-RES = tested on: NCI/ADR-RES
MOLT-4 = tested on: MOLT-4
UO-31 = tested on: UO-31
COLO 205 = tested on: COLO 205
CCRF-CEM = tested on: CCRF-CEM
MCF7 = tested on: MCF7
HT-29 = tested on: HT-29
A498 = tested on: A498
UACC-257 = tested on: UACC-257
CAKI-1 = tested on: CAKI-1
HOP-62 = tested on: HOP-62
UACC-62 = tested on: UACC-62
HL-60 = tested on: HL-60
NCI-H226 = tested on: NCI-H226
MDA-MB-231 = tested on: MDA-MB-231
OVCAR-8 = tested on: OVCAR-8
EKVX = tested on: EKVX
U-251 = tested on: U-251
K562 = tested on: K562
PC-3 = tested on: PC-3
DU-145 = tested on: DU-145
RPMI-8226 = tested on: RPMI-8226
SW-620 = tested on: SW-620
HOP-92 = tested on: HOP-92
SK-MEL-5 = tested on: SK-MEL-5
HCC 2998 = tested on: HCC 2998
A549 = tested on: A549
SF-295 = tested on: SF-295
BT-549 = tested on: BT-549
MDA-MB-435 = tested on: MDA-MB-435
LOX IMVI = tested on: LOX IMVI
T47D = tested on: T47D
HCT-116 = tested on: HCT-116
SF-268 = tested on: SF-268
RXF 393 = tested on: RXF 393
KM12 = tested on: KM12
HCT-15 = tested on: HCT-15
OVCAR-5 = tested on: OVCAR-5
ACHN = tested on: ACHN
NCI-H460 = tested on: NCI-H460
OVCAR-3 = tested on: OVCAR-3
SF-539 = tested on: SF-539

COc1cc2c(cc1OCCCC(=O)Nc1cc(C(=O)Nc3cc(C(=O)Nc4cc(C(=O)NCCCN(C)C)n(C)n4)n(C)c3)n(C)c1)N=CC1CCCN1C2=O (stereo not drawn)
GI50 (Hs-578T): 22.1 µM (inactive) | GI50 (SNB-75): 23.9 µM (inactive) | GI50 (TK-10): 21 µM (inactive) | GI50 (SN12C): 22.5 µM (inactive) | GI50 (M14): 24.3 µM (inactive) | GI50 (SR): 3.76 µM (inactive) | GI50 (Malme-3M): 18.7 µM (inactive) | GI50 (MDA-N): 20 µM (inactive) | GI50 (OVCAR-4): 20.1 µM (inactive) | GI50 (SK-MEL-2): 23.1 µM (inactive) | GI50 (SK-OV-3): 40.6 µM (inactive) | GI50 (IGROV-1): 6.38 µM (inactive) | GI50 (SNB-19): 22.5 µM (inactive) | GI50 (786-0): 22.3 µM (inactive) | GI50 (NCI-H23): 25.8 µM (inactive) | GI50 (SK-MEL-28): 17.1 µM (inactive) | GI50 (NCI-H522): 2.28 µM (inactive) | GI50 (NCI/ADR-RES): 39.8 µM (inactive) | GI50 (MOLT-4): 4.01 µM (inactive) | GI50 (UO-31): 22.2 µM (inactive) | GI50 (COLO 205): 21.2 µM (inactive) | GI50 (CCRF-CEM): 4.31 µM (inactive) | GI50 (MCF7): 16.8 µM (inactive) | GI50 (HT-29): 20.3 µM (inactive) | GI50 (A498): 29.2 µM (inactive) | GI50 (UACC-257): 19.7 µM (inactive) | GI50 (CAKI-1): 25.1 µM (inactive) | GI50 (HOP-62): 25.8 µM (inactive) | GI50 (UACC-62): 19.1 µM (inactive) | GI50 (HL-60): 2.52 µM (inactive) | GI50 (NCI-H226): 25.1 µM (inactive) | GI50 (MDA-MB-231): 34.5 µM (inactive) | GI50 (OVCAR-8): 33 µM (inactive) | GI50 (EKVX): 74 µM (inactive) | GI50 (U-251): 23.9 µM (inactive) | GI50 (K562): 5.2 µM (inactive) | GI50 (PC-3): 23.6 µM (inactive) | GI50 (DU-145): 32.1 µM (inactive) | GI50 (RPMI-8226): 25.7 µM (inactive) | GI50 (SW-620): 20.6 µM (inactive) | GI50 (HOP-92): 21.3 µM (inactive) | GI50 (SK-MEL-5): 19.5 µM (inactive) | GI50 (HCC 2998): 28.1 µM (inactive) | GI50 (A549): 49.3 µM (inactive) | GI50 (SF-295): 31.4 µM (inactive) | GI50 (BT-549): 22.1 µM (inactive) | GI50 (MDA-MB-435): 21 µM (inactive) | GI50 (LOX IMVI): 18.7 µM (inactive) | GI50 (T47D): 48.5 µM (inactive) | GI50 (HCT-116): 51.4 µM (inactive) | GI50 (SF-268): 27.9 µM (inactive) | GI50 (RXF 393): 19.8 µM (inactive) | GI50 (KM12): 24 µM (inactive) | GI50 (HCT-15): 28.5 µM | GI50 (OVCAR-5): 40 µM (inactive) | GI50 (ACHN): 17.1 µM (inactive) | GI50 (NCI-H460): 25.9 µM (inactive) | GI50 (OVCAR-3): 40.3 µM (inactive) | GI50 (SF-539): 23.1 µM (inactive)

Cc1ccc2c(O)cc(-c3ccc(Cl)cc3)nc2n1
GI50 (Hs-578T): 11.9 µM (inactive) | GI50 (SNB-75): 8.24 µM (inactive) | GI50 (TK-10): 21.2 µM (inactive) | GI50 (SN12C): 4.38 µM (inactive) | GI50 (M14): 7.48 µM (inactive) | GI50 (SR): 4.33 µM (inactive) | GI50 (Malme-3M): 3.74 µM (inactive) | GI50 (MDA-N): 1.56 µM (inactive) | GI50 (OVCAR-4): 15.2 µM (inactive) | GI50 (SK-MEL-2): 3.98 µM (inactive) | GI50 (SK-OV-3): 6.64 µM (inactive) | GI50 (IGROV-1): 5.69 µM (inactive) | GI50 (SNB-19): 6.97 µM (inactive) | GI50 (786-0): 5.38 µM (inactive) | GI50 (NCI-H23): 27.2 µM (inactive) | GI50 (SK-MEL-28): 9.66 µM (inactive) | GI50 (NCI-H522): 5.89 µM (inactive) | GI50 (NCI/ADR-RES): 8.89 µM (inactive) | GI50 (MOLT-4): 1.2 µM (inactive) | GI50 (UO-31): 14.3 µM (inactive) | GI50 (COLO 205): 1.85 µM (inactive) | GI50 (CCRF-CEM): 7.52 µM (inactive) | GI50 (MCF7): 3.35 µM (inactive) | GI50 (HT-29): 3.3 µM (inactive) | GI50 (A498): 9.73 µM (inactive) | GI50 (UACC-257): 15.6 µM (inactive) | GI50 (CAKI-1): 5.57 µM (inactive) | GI50 (HOP-62): 9.16 µM (inactive) | GI50 (UACC-62): 5.15 µM (inactive) | GI50 (HL-60): 2.69 µM (inactive) | GI50 (NCI-H226): 14.9 µM (inactive) | GI50 (MDA-MB-231): 5.52 µM (inactive) | GI50 (OVCAR-8): 9.33 µM (inactive) | GI50 (EKVX): 18 µM (inactive) | GI50 (U-251): 5.47 µM (inactive) | GI50 (K562): 2.58 µM (inactive) | GI50 (PC-3): 2.96 µM (inactive) | GI50 (DU-145): 6.05 µM (inactive) | GI50 (RPMI-8226): 1.87 µM (inactive) | GI50 (SW-620): 5.08 µM (inactive) | GI50 (HOP-92): 13.6 µM (inactive) | GI50 (SK-MEL-5): 3.47 µM (inactive) | GI50 (HCC 2998): 6.65 µM (inactive) | GI50 (A549): 2.73 µM (inactive) | GI50 (SF-295): 4.59 µM (inactive) | GI50 (BT-549): 2.38 µM (inactive) | GI50 (MDA-MB-435): 1.32 µM (inactive) | GI50 (LOX IMVI): 4.93 µM (inactive) | GI50 (T47D): 0.764 µM (active) | GI50 (HCT-116): 3.1 µM (inactive) | GI50 (SF-268): 27 µM (inactive) | GI50 (RXF 393): 27.2 µM (inactive) | GI50 (KM12): 4.57 µM (inactive) | GI50 (HCT-15): 3.31 µM | GI50 (OVCAR-5): > 39.3 µM (inactive) | GI50 (ACHN): 8.07 µM (inactive) | GI50 (NCI-H460): 3.69 µM (inactive) | GI50 (OVCAR-3): 3.1 µM (inactive) | GI50 (SF-539): 5.16 µM (inactive)
